Measured values as given in US10899738B2 (THE REGENTS OF THE UNIVERSITY OF MICHIGAN, priority 2016, dated 2021).

Biological target: menin protein (Homo sapiens (Human), UniProt O00255)
Assay: biochemical
Format: binding
Details: FP competitive binding, menin protein 4 nM, FAM-MM2 probe 2 nM; for IC50: read-out: Menin Binding Affinity IC50
Procedure, shortened: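 Competitive fluorescence polarization assay using FAM-labelled MLL1 peptide probe FAM-MM2 (2 nM final) preincubated with menin (4 nM final) in PBS with 0.02% bovine γ-globulin, 4% DMSO and 0.01% Triton X-100. Compounds were added and incubated 30 min at room temperature. IC50 came from nonlinear regression of competition curves, with Ki also derived.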

Sequence of menin protein (O00255 whole entry): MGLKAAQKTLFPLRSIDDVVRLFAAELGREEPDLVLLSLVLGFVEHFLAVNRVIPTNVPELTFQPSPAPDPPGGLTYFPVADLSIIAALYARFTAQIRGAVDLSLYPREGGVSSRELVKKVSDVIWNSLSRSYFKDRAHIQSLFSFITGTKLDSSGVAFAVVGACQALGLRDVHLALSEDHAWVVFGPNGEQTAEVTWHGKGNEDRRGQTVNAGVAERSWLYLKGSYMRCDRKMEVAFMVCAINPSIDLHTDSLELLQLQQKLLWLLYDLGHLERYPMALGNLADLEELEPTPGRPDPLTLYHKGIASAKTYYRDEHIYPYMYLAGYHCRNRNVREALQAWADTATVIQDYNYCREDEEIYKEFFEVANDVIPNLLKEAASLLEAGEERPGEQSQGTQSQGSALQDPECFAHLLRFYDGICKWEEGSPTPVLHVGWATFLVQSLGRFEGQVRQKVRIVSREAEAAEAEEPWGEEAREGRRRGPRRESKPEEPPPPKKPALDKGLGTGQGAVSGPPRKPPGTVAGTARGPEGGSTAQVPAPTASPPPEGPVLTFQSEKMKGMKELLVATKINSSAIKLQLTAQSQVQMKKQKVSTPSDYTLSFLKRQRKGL

Structure (SMILES) | IC50 [µM] | Menin Binding Affinity IC50 (μM)
CN1Cc2ccccc2C(C2CCCC2)(C2CCN(CCCOc3ccc(S(C)(=O)=O)cc3)CC2)C1 (stereo not shown) [compound 68, 4-cyclopentyl-2-methyl-4-(1-(3-(4-(methylsulfonyl)phenoxy)propyl)piperidin-4-yl)-1,2,3,4-tetrahydroisoquinoline] | 0.181 | 
CCS(=O)(=O)c1ccc(N2CC(CN3CCC(C4(C5CCCC5)CN(C)Cc5ccccc54)CC3)C2)cc1 (stereo not shown) [compound 69, 4-cyclopentyl-4-(1-((1-(4-(ethylsulfonyl)phenyl)azetidin-3-yl)methyl)piperidin-4-yl)-2-methyl-1,2,3,4-tetrahydroisoquinoline] | 0.03 | 
c1ccc2c(c1)CCNC2(C1CCCC1)C1CCNCC1 (stereo not shown) [compound 72, 1-cyclopentyl-1-(piperidin-4-yl)-1,2,3,4-tetrahydroisoquinoline] | 610 | 
COCCCN1CCC(C2(C3CCCC3)NCCc3ccccc32)CC1 (stereo not shown) [compound 73, 1-cyclopentyl-1-(1-(3-methoxypropyl)piperidin-4-yl)-1,2,3,4-tetrahydroisoquinoline] | 9.9 | 
O=C(CN1CCC(C2(C3CCCC3)NCCc3ccccc32)CC1)N1CCCC1 (stereo not shown) [compound 74, 2-(4-(1-cyclopentyl-1,2,3,4-tetrahydroisoquinolin-1-yl)piperidin-1-yl)-1-(pyrrolidin-1-yl)ethan-1-one] | 3.1 | 
CN1CCC(C2(C3CCCC3)NCCc3ccccc32)CC1 (stereo not shown) [compound 75, 1-cyclopentyl-1-(1-methylpiperidin-4-yl)-1,2,3,4-tetrahydroisoquinoline] | 142 | 
c1ccc(OCCCN2CCC(C3(C4CCCC4)NCCc4ccccc43)CC2)cc1 (stereo not shown) [compound 76, 1-cyclopentyl-1-(1-(3-phenoxypropyl)piperidin-4-yl)-1,2,3,4-tetrahydroisoquinoline] | 1.3 | 
N#Cc1ccc(-c2ccc(N3CCC(C4(C5CCCC5)NCCc5ccccc54)CC3)cc2)cc1 (stereo not shown) [compound 77, 4′-(4-(1-cyclopentyl-1,2,3,4-tetrahydroisoquinolin-1-yl)piperidin-1-yl)-[1,1′-biphenyl]-4-carbonitrile] | 2580 | 
c1ccc2c(c1)CCNC2(c1ccncc1)C1CCCC1 (stereo not shown) [compound 78, 1-cyclopentyl-1-(pyridin-4-yl)-1,2,3,4-tetrahydroisoquinoline] |  | No inhibition
N#Cc1ccc(OCCCN2CC=C(C3(C4CCCC4)NCCc4ccccc43)CC2)cc1 (stereo not shown) [compound 79, 4-(3-(4-(1-cyclopentyl-1,2,3,4-tetrahydroisoquinolin-1-yl)-3,6-dihydropyridin-1(2H)-yl)propoxy)benzonitrile] | 0.7 | 
N#Cc1cc2cc(C(=O)N[C@H]3CC[C@H](C4(C5CCCC5)NCCc5ccccc54)CC3)ccc2[nH]1 (stereo partly shown) [compound 80, 2-cyano-N-((1r,4r)-4-(1-cyclopentyl-1,2,3,4-tetrahydroisoquinolin-1-yl)cyclohexyl)-1H-indole-5-carboxamide] | 11.6 | 
N#Cc1cc2ccc(C(=O)N[C@H]3CC[C@H](C4(C5CCCC5)NCCc5ccccc54)CC3)cc2[nH]1 (stereo partly shown) [compound 81, 2-cyano-N-((1r,4r)-4-(1-cyclopentyl-1,2,3,4-tetrahydroisoquinolin-1-yl)cyclohexyl)-1H-indole-6-carboxamide] | 1.9 | 
O=C(CN1CCC(C2(C3CCCC3)NCCc3ccccc32)CC1)N1Cc2ccccc2C1 (stereo not shown) [compound 82, 2-(4-(1-cyclopentyl-1,2,3,4-tetrahydroisoquinolin-1-yl)piperidin-1-yl)-1-(isoindolin-2-yl)ethan-1-one] | 6.2 | 
N#Cc1ccc2c(c1)CCN(C(=O)CN1CCC(C3(C4CCCC4)NCCc4ccccc43)CC1)C2 (stereo not shown) [compound 83, 2-(2-(4-(1-cyclopentyl-1,2,3,4-tetrahydroisoquinolin-1-yl)piperidin-1-yl)acetyl)-1,2,3,4-tetrahydroisoquinoline-6-carbonitrile] | 0.847 | 
O=C(CN1CCC(C2(C3CCCC3)NCCc3ccccc32)CC1)N1CCc2ccccc2C1 (stereo not shown) [compound 84, 2-(4-(1-cyclopentyl-1,2,3,4-tetrahydroisoquinolin-1-yl)piperidin-1-yl)-1-(3,4-dihydroisoquinolin-2(1H)-yl)ethan-1-one] | 8.2 | 
CC(C)(C)S(=O)(=O)c1ccc(N2CC(CN3CCC(C4(C5CCCC5)NCCc5ccccc54)CC3)C2)cc1 (stereo not shown) [compound 87, 1-(1-((1-(4-(tert-butylsulfonyl)phenyl)azetidin-3-yl)methyl)piperidin-4-yl)-1-cyclopentyl-1,2,3,4-tetrahydroisoquinoline] | 0.122 | 
CN(C)S(=O)(=O)c1ccc(N2CC(CN3CCC(C4(C5CCCC5)NCCc5ccccc54)CC3)C2)cc1 (stereo not shown) [compound 88, 4-(3-((4-(1-cyclopentyl-1,2,3,4-tetrahydroisoquinolin-1-yl)piperidin-1-yl)methyl)azetidin-1-yl)-N,N-dimethylbenzenesulfonamide] | 0.075 | 

Structure (SMILES) | IC50 [µM] | Menin Binding Affinity IC50 (μM)
O=S(=O)(c1ccc(O[C@H]2C[C@@H](N3CCC(C4(C5CCCC5)NCCc5ccccc54)CC3)C2)cc1)C1CC1 (stereo partly shown) [compound 89, 1-cyclopentyl-1-(1-((1s,3s)-3-(4-(cyclopropylsulfonyl)phenoxy)cyclobutyl)piperidin-4-yl)-1,2,3,4-tetrahydroisoquinoline] | 13.1 | 
O=S(=O)(c1ccc(OC2CC(N3CCC(C4(C5CCCC5)NCCc5ccccc54)CC3)C2)cc1)C1CC1 (stereo not shown) [compound 90, 1-cyclopentyl-1-(1-((1r,3r)-3-(4-(cyclopropylsulfonyl)phenoxy)cyclobutyl)piperidin-4-yl)-1,2,3,4-tetrahydroisoquinoline] | 2.4 | 
CCN1Cc2ccccc2C(C2CCCC2)(C2CCN(CC3CN(c4ccc(S(=O)(=O)C5CC5)cc4C)C3)CC2)C1 (stereo not shown) [compound 96, 4-cyclopentyl-4-(1-((1-(4-(cyclopropylsulfonyl)-2-methylphenyl)azetidin-3-yl)methyl)piperidin-4-yl)-2-ethyl-1,2,3,4-tetrahydroisoquinoline] | 0.587 | 
O=S(=O)(c1ccc(N2CC(CN3CCC(C4(C5CCCC5)NCCc5ccccc54)CC3)C2)cc1)C1CCOCC1 (stereo not shown) [compound 97, 1-cyclopentyl-1-(1-((1-(4-((tetrahydro-2H-pyran-4-yl)sulfonyl)phenyl)azetidin-3-yl)methyl)piperidin-4-yl)-1,2,3,4-tetrahydroisoquinoline] | 0.049 | 
Cn1cccc1S(=O)(=O)c1ccc(N2CC(CN3CCC(C4(C5CCCC5)NCCc5ccccc54)CC3)C2)cc1 (stereo not shown) [compound 98, 1-cyclopentyl-1-(1-((1-(4-((1-methyl-1H-pyrrol-2-yl)sulfonyl)phenyl)azetidin-3-yl)methyl)piperidin-4-yl)-1,2,3,4-tetrahydroisoquinoline] | 0.021 | 
O=S(=O)(c1ccc(CCN2CCc3cc(C4(C5CCCC5)NCCc5ccccc54)ccc3C2)cc1)C1CC1 (stereo not shown) [compound 99, 1-cyclopentyl-2′-(4-(cyclopropylsulfonyl)phenethyl)-1,1′,2,2′,3,3′,4,4′-octahydro-1,6′-biisoquinoline] | 0.802 | 
O=C(Cc1ccc(S(=O)(=O)C2CC2)cc1)N1CCc2cc(C3(C4CCCC4)NCCc4ccccc43)ccc2C1 (stereo not shown) [compound 100, 1-(1-cyclopentyl-1,2,3,3′,4,4′-hexahydro-[1,6′-biisoquinolin]-2′-(1′H)-yl)-2-(4-(cyclopropylsulfonyl)phenyl) ethan-1-one] | 4.7 | 
N#Cc1ccc(OCCCN2CCC(CC3(C4CCCC4)NCCc4ccccc43)CC2)cc1 (stereo not shown) [compound 104, 4-(3-(4-((1-cyclopentyl-1,2,3,4-tetrahydroisoquinolin-1-yl)methyl)piperidin-1-yl)propoxy)benzonitrile] | 32.7 | 
N#Cc1ccc(OCCN2CCC(CC3(C4CCCC4)NCCc4ccccc43)CC2)cc1 (stereo not shown) [compound 105, 4-(2-(4-((1-cyclopentyl-1,2,3,4-tetrahydroisoquinolin-1-yl)methyl)piperidin-1-yl)ethoxy)benzonitrile] | 20.2 | 
c1ccc(CN2CCC(CC3(C4CCCC4)NCCc4ccccc43)CC2)cc1 (stereo not shown) [compound 106, 1-((1-benzylpiperidin-4-yl)methyl)-1-cyclopentyl-1,2,3,4-tetrahydroisoquinoline] | 84.1 | 
c1ccc2c(c1)CCNC2(CC1CCNCC1)C1CCCC1 (stereo not shown) [compound 107, 1-cyclopentyl-1-(piperidin-4-ylmethyl)-1,2,3,4-tetrahydroisoquinoline] | 299 | 
N#Cc1ccc(OCCCN2CCC(C3(C4CCCC4)NCCc4ccccc43)C2)cc1 (stereo not shown) [compound 108, 4-(3-(3-(1-cyclopentyl-1,2,3,4-tetrahydroisoquinolin-1-yl)pyrrolidin-1-yl)propoxy)benzonitrile] | 56.5 | 
N#Cc1ccc(N2CC(CN3CCC(C4(C5CCCC5)NCCc5ccccc54)CC3)C2)cn1 (stereo not shown) [compound 109, 5-(3-((4-(1-cyclopentyl-1,2,3,4-tetrahydroisoquinolin-1-yl)piperidin-1-yl)methyl)azetidin-1-yl)picolinonitrile] | 0.825 | 
N#Cc1ccc(N2CC(CN3CCC(C4(C5CCCC5)NCCc5ccccc54)CC3)C2)nc1 (stereo not shown) [compound 110, 6-(3-((4-(1-cyclopentyl-1,2,3,4-tetrahydroisoquinolin-1-yl)piperidin-1-yl)methyl)azetidin-1-yl)nicotinonitrile] | 575 | 
N#Cc1cc2cc(CN3CCC(CC4(C5CCCC5)NCCc5ccccc54)CC3)ccc2[nH]1 (stereo not shown) [compound 112, 5-((4-((1-cyclopentyl-1,2,3,4-tetrahydroisoquinolin-1-yl)methyl)piperidin-1-yl)methyl)-1H-indole-2-carbonitrile] | 41.6 | 
N#Cc1cc2cc(CN3CCC(C4(C5CCCC5)NCCc5ccccc54)CC3)ccc2[nH]1 (stereo not shown) [compound 114, 5-((4-(1-cyclopentyl-1,2,3,4-tetrahydroisoquinolin-1-yl)piperidin-1-yl)methyl)-1H-indol-2-carbonitrile] | 32.6 | 
N#Cc1ccc(N2CCCC(CN3CCC(C4(C5CCCC5)NCCc5ccccc54)CC3)C2)cc1 (stereo not shown) [compound 115, 4-(3-((4-(1-cyclopentyl-1,2,3,4-tetrahydroisoquinolin-1-yl)piperidin-1-yl)methyl)piperidin-1-yl)benzonitrile] | 4 | 
